Reference: patent US12329158B2, “Large-scale methods of uniformly coating packaging surfaces with a volatile antimicrobial to preserve food freshness” (AGROFRESH INC., priority 2013, dated 2025)
Read-outs that look alike come from different tables or passages of the source.

Legend:
Assay in all cases: Volatile MIC of Samples 1-4 (Example 19)
Assay type in all cases: cell-based
Penicillium expansum = settings: 50 µl/disk
Botrytis cinerea = settings: 50 µl/disk; for MIC: Botrytis cinerea, read-out: MIC mg/l Botrytis cinerea
Protocol: A 3-ml volume of full-strength Potato Dextrose Agar (PDA) is added to each well. […] Cat. No. 1001-0155) are placed on the underside of a polyethylene PCR plate sealing film. […] The acetone is permitted to evaporate for 5 minutes. The headspace around the Botrytis cinerea inoculum is then sealed inside the well by the film with the adhering disk containing the fungicide. Plates are inverted to prevent any possibility of the chemical from flaking from the disk and falling onto the inoculated agar.

Alternaria alternata = settings: 50 µl/disk; for MIC: Alternaria alternata, read-out: MIC mg/l Alternaria alternata
Monilinia fructicola = settings: 50 µl/disk
Glomerella cingulata = settings: 50 µl/disk; first test (Table 15)

## Fc1ccc2c(c1)COB2OCCOB1OCc2cc(F)ccc21 [Sample 1]
Penicillium expansum; repeat test (Table 16)
  MIC mg/l Penicillium expansum: 8.9 mg/L
Penicillium expansum; Penicillium expansum, first test (Table 15), read-out: MIC mg/l Penicillium expansum
  MIC: 8.9 mg/L
Botrytis cinerea; first test (Table 15)
  MIC: < 0.6 mg/L
Botrytis cinerea; repeat test (Table 16)
  MIC: 0.6 mg/L
Alternaria alternata; first test (Table 15)
  MIC: 22 mg/L
Alternaria alternata; repeat test (Table 16)
  MIC: > 2.2 mg/L
Monilinia fructicola; Monilinia fructicola, repeat test (Table 16), read-out: MIC mg/l Monilinia fructicola
  MIC: 2.2 mg/L

## c1ccc2c(c1)COB2OCCOB1OCc2ccccc21 [Sample 2]
Penicillium expansum; first test (Table 15)
  MIC mg/l Penicillium expansum: 8.9 mg/L
Penicillium expansum; repeat test (Table 16)
  MIC mg/l Penicillium expansum: 8.9 mg/L
Botrytis cinerea; first test (Table 15)
  MIC mg/l Botrytis cinerea: <0.6 mg/L
Botrytis cinerea; repeat test (Table 16)
  MIC mg/l Botrytis cinerea: 2.2 mg/L
Glomerella cingulata
  MIC mg/l Glomerella cingulata: 142.9 mg/L
Alternaria alternata; first test (Table 15)
  MIC mg/l Alternaria alternata: 8.9 mg/L
Monilinia fructicola; first test (Table 15)
  MIC mg/l Monilinia fructicola: 35.7 mg/L

## CC(C)(OB1OCc2cc(F)ccc21)C(C)(C)OB1OCc2cc(F)ccc21 [Sample 3]
Penicillium expansum; first test (Table 15)
  MIC mg/l Penicillium expansum: 4.5 mg/L
Penicillium expansum; repeat test (Table 16)
  MIC mg/l Penicillium expansum: 8.9 mg/L
Botrytis cinerea; first test (Table 15)
  MIC mg/l Botrytis cinerea: <0.6 mg/L
Botrytis cinerea; repeat test (Table 16)
  MIC mg/l Botrytis cinerea: 1.1 mg/L
Alternaria alternata; first test (Table 15)
  MIC mg/l Alternaria alternata: 2.2 mg/L
Alternaria alternata; repeat test (Table 16)
  MIC mg/l Alternaria alternata: >2.2 mg/L
Monilinia fructicola; repeat test (Table 16)
  MIC mg/l Monilinia fructicola: 1.1 mg/L

## CC(COB1OCc2cc(F)ccc21)OB1OCc2cc(F)ccc21 (stereo not shown) [Sample 4]
Penicillium expansum; first test (Table 15)
  MIC mg/l Penicillium expansum: 8.9 mg/L
Penicillium expansum; repeat test (Table 16)
  MIC mg/l Penicillium expansum: 8.9 mg/L
Botrytis cinerea; first test (Table 15)
  MIC mg/l Botrytis cinerea: <0.6 mg/L
Botrytis cinerea; repeat test (Table 16)
  MIC mg/l Botrytis cinerea: 0.6 mg/L
Alternaria alternata; first test (Table 15)
  MIC mg/l Alternaria alternata: 1.1 mg/L
Alternaria alternata; repeat test (Table 16)
  MIC mg/l Alternaria alternata: >2.2 mg/L
Monilinia fructicola; repeat test (Table 16)
  MIC mg/l Monilinia fructicola: 1.1 mg/L
